From US5723747A, “Wax esters in transformed plants” (Calgene, Inc., priority 1994, dated 1998)
Where two headings read alike, the source gives them in different places.

Legend:
[1] = molecular target: T1, jojoba acyl-CoA reductase (Simmondsia chinensis, UniProt Q9XGY7, S459G); experiment: biochemical; details: for effect of end-products and cofactors on reductase activity (in words): CoA and NADP+ at millimolar concentrations; for Reductase Activity, Acyl-CoA (10 μM): acyl-CoA as substrate at 10 μM, 0.5M NaCl, pH 7.5; for effect of salt on reductase activity (in words): 0.5M monobasic salts, divalent salts at 0.167M and 0.5M
T1 sequence (Q9XGY7 whole entry S459G): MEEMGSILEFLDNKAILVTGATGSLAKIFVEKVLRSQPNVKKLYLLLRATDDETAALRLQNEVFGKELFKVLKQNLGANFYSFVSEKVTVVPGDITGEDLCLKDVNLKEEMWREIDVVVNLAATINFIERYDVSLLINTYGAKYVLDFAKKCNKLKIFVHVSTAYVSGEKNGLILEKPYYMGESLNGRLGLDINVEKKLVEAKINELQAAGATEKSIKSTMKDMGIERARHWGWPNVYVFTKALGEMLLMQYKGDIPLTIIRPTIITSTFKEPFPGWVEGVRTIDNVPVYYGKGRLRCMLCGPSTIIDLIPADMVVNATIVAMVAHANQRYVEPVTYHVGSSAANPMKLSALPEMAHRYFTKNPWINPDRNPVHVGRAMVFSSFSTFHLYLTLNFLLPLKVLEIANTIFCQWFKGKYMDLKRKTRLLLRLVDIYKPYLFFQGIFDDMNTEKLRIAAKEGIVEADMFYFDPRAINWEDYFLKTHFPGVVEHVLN
Experimental: (§1) […] The incubation mixture also contains 10% w/v glycerol, 1 mM DTT, and is buffered with 50 mM HEPES (4-[2-hydroxyethyl]-1-piperazineethane-sulfonic acid) (HEPES, here and as referred to hereafter is added from a 1M stock solution adjusted to pH 7.5).
(§2) […] The assay is terminated by placing the assay tube on ice and immediately adding 0.25 ml isopropanol:acetic acid (5:1 v/v). Unlabeled wax esters (0.1 mg) and oleyl alcohol (0.1 mg) are added as carriers. The [^14 C] lipids are extracted by the scaled-down protocol of Hara and Radin (Anal. Biochem. (1978) 90:420). Six ml of hexane/isopropanol (3:2, v/v) is added to the terminated assay. The sample is vortexed, 2 ml of aqueous sodium sulphate solution (5.5% w/v) is added, and the sample is again vortexed.
(§3) The incubation mixture also contains 10% w/v glycerol, 1 mM DTT, and is buffered with 50 mM HEPES (4-[2-hydroxyethyl]-1-piperazineethane-sulfonic acid) (HEPES, here and as referred to hereafter is added from a 1M stock solution adjusted to pH 7.5). […]
as §2, with “(4:1” for “(5:1”, “(25 μg),” for “(0.1 mg) and”, “(50 μg), and oleic acid (50 μg)” for “(0.1 mg)”, “Four” for “Six”, “(6.7%” for “(5.5%”
(§4) Following addition of the sodium sulphate and vortexing the sample, the upper organic phase is removed and the lower aqueous phase is washed with 4 ml hexane/isopropanol (7:2 v/v). The organic phases are pooled and evaporated to dryness under nitrogen. The lipid residue is resuspended in a small volume of heptane, and an aliquot is assayed for radioactivity by liquid scintillation counting. The remainder of the sample can be used either for TLC analysis of the labeled classes, or for derivatization to cleave the wax esters, and thereby give a measure of total alcohol produced.
(§5) For lipid class analysis the sample is applied to a silica TLC plate, and the plate is developed in hexane/diethyl ether/acetic acid (such as 80:20:1 or 70:30:1 v/v/v). The distribution of radioactivity between the lipid classes, largely wax esters (when ligase is present, as in the microsomal membrane preparation assay), free fatty acids, fatty alcohols, and polar lipids at the origin, is measured using an AMBIS radioanalytic imaging system (AMBIS Systems Inc., San Diego, Calif.). If necessary the individual lipid classes can be recovered from the TLC plate for further analysis.
(§6) Following addition of the sodium sulfate and vortexing the sample, a known percentage of the organic phase is removed and counted via liquid scintillation counting. This calculation is used to estimate the total counts in the organic phase.

jojoba wax synthase = molecular target: T2, jojoba wax synthase (Simmondsia chinensis, UniProt Q9XGY6); experiment: Wax synthase assay, microsomal membrane fraction; format: biochemical; details: for Wax synthase Activity, Acyl Group: 80 μM acyl-CoA substrate, 100 μM radiolabeled oleyl alcohol; for Wax synthase Activity, Alcohol Group: 100 μM alcohol substrate, 40 μM radiolabeled eicosenoyl-CoA
T2 construct: added to a microsomal membrane fraction having wax synthase activity; from tissue; host or cells: jojoba microsomal membrane fraction
T2 sequence (Q9XGY6 1-352): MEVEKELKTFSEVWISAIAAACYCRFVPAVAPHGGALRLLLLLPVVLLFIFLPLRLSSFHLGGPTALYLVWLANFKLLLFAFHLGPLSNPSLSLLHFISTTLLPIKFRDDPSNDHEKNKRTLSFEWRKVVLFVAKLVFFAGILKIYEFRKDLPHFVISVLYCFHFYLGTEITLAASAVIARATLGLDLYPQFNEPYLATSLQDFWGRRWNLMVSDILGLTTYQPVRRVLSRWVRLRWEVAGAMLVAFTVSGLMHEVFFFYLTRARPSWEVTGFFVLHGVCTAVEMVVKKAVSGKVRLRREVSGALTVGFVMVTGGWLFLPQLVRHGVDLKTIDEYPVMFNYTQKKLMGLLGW
Experimental: Wax synthase activity is measured by incubation of 40 μM [1-^14 C]acyl-CoA (usually palmitoyl-CoA, sp. act. 5.1-5.6 mCi/mmol) and 200 μM oleyl alcohol with the sample to be assayed in a total volume of 0.25 ml. The incubation mixture also contains 20% w/v glycerol, 1 mM DTT, 0.5M NaCl and is buffered with 25 mM HEPES (4-[2-hydroxyethyl]-1-piperazineethane-sulfonic acid).
A substrate mixture is prepared in a glass vial, with oleyl alcohol being added immediately before use, and is added to samples.
Acyl-CoA and alcohol substrates having varying carbon chain lengths and degrees of unsaturation were added to a microsomal membrane fraction having wax synthase activity to determine the range of substrates recognized by the jojoba wax synthase. Wax synthase activity was measured as described in Example 1, with acyl specificity measured using 80 μM of acyl-CoA substrate and 100 μM of radiolabeled oleyl alcohol. Alcohol specificity was measured using 100 μM of alcohol substrate and 40 μM of radiolabeled eicosenoyl-CoA.

[2] = molecular target: jojoba acyl-CoA reductase (Simmondsia chinensis, UniProt Q9XGY7); experiment: biochemical
jojoba acyl-CoA reductase (Simmondsia chinensis, UniProt Q9XGY7), sequence (Q9XGY7 whole entry S459G): as the sequence (Q9XGY7 whole entry S459G) above
Experimental: as §1, §2, §3
as §2, with “(4:1” for “(5:1”, “(25 μg),” for “(0.1 mg) and”, “(50 μg), and oleic acid (50 μg)” for “(0.1 mg)”, “Four” for “Six”, “(6.7%” for “(5.5%”
as §4, §5, §6

[3] = molecular target: T1, jojoba acyl-CoA reductase; parameters: The microsomal membrane preparation described above is used for further characterization of the reductase enzyme; from tissue; host or cells: jojoba embryos (about 90 to 110 days postanthesis), microsomal membrane preparation; details: previously shown, Pollard et al.; cited from earlier work
[4] = molecular target: T3, acyl CoA: alcohol acyl transferase (Simmondsia chinensis, UniProt Q9XGY6); experiment: Acyl CoA: alcohol acyl transferase activity in the membrane preparation; format: biochemical, jojoba; details: 0.3% w/v in the assay mixture
T3 construct: activity which is also present in the membrane preparation; from tissue; host or cells: microsomal membrane preparation (jojoba embryos)
T3 sequence (Q9XGY6 1-352): T2 sequence (Q9XGY6 1-352)
Text: If it is desired to inhibit an acyl CoA: alcohol acyl transferase activity which is also present in the membrane preparation (and which consumes the product of the reductase reaction), 0.3% w/v CHAPS is included in the assay mixture.

[5] = palmitoyl thioesters as acyl substrates

Molecule: NC(=O)c1ccc[n+]([C@@H]2O[C@H](COP(=O)([O-])OP(=O)(O)OC[C@H]3O[C@@H](n4cnc5c(N)ncnc54)[C@H](OP(=O)(O)O)[C@@H]3O)[C@@H](O)[C@H]2O)c1 [NADP+]
- effect of end-products and cofactors on reductase activity (in words) [1]: significant inhibition

Molecule: CC[C@H](C)C(=O)O[C@H]1C[C@@H](C)C=C2C=C[C@H](C)[C@H](CC[C@@H]3C[C@@H](O)CC(=O)O3)[C@H]21 [Mevinolin]
- concentration at which an effect on jojoba acyl-CoA reductase is seen ([1]; only has an effect at relatively high concentrations): 100 µM

Molecule: CC(C)(COP(=O)(O)OP(=O)(O)OC[C@H]1O[C@@H](n2cnc3c(N)ncnc32)[C@H](O)[C@@H]1OP(=O)(O)O)[C@@H](O)C(=O)NCCC(=O)NCCS [CoA]
- effect of end-products and cofactors on reductase activity (in words) [1]: significant inhibition

Molecule: CCCCCCCCCCCCCCCCCC(=O)SCCNC(=O)CCNC(=O)[C@H](O)C(C)(C)COP(=O)(O)OP(=O)(O)OC[C@H]1O[C@@H](n2cnc3c(N)ncnc32)[C@H](O)[C@@H]1OP(=O)(O)O [18:0]
- Reductase Activity, Acyl-CoA (10 μM) [1]: 1.4 pmol/min/µL
- Wax synthase Activity, Acyl Group (jojoba wax synthase): 51 pmol/min
- Wax synthase Activity, Alcohol Group (jojoba wax synthase): 56 pmol/min

Molecule: NC(=O)c1ccc[n+]([C@@H]2O[C@H](COP(=O)([O-])OP(=O)(O)OC[C@H]3O[C@@H](n4cnc5c(N)ncnc54)[C@H](O)[C@@H]3O)[C@@H](O)[C@H]2O)c1 [AND+]
- effect of end-products and cofactors on reductase activity (in words) [1]: marginal effects

Molecule: CCCCCCCCCCCCCCCC(=O)SCCNC(=O)CCNC(=O)[C@H](O)C(C)(C)COP(=O)(O)OP(=O)(O)OC[C@H]1O[C@@H](n2cnc3c(N)ncnc32)[C@H](O)[C@@H]1OP(=O)(O)O [16:0, palmitoyl-CoA]
- IC50 [2]: 5 µM

Molecule: CCCCCCCCCCCCCCCCCCCC(=O)SCCNC(=O)CCNC(=O)[C@H](O)C(C)(C)COP(=O)(O)OP(=O)(O)OC[C@H]1O[C@@H](n2cnc3c(N)ncnc32)[C@H](O)[C@@H]1OP(=O)(O)O [20:0]
- Wax synthase Activity, Acyl Group (jojoba wax synthase): 49 pmol/min
- Wax synthase Activity, Alcohol Group (jojoba wax synthase): 21 pmol/min

Molecule: CCCCCCCCCCCCCCCC(=O)SCCNC(C)=O [N-acetyl-S-palmitoyl cysteamine]
- wax synthase activity towards acyl-thioester substrates (in words) (jojoba wax synthase; [5]): no activity was detectable

Molecule: CCCCC/C=C\C/C=C\CCCCCCCC(=O)SCCNC(=O)CCNC(=O)[C@H](O)C(C)(C)COP(=O)(O)OP(=O)(O)OC[C@H]1O[C@@H](n2cnc3c(N)ncnc32)[C@H](O)[C@@H]1OP(=O)(O)O [18:2]
- Wax synthase Activity, Acyl Group (jojoba wax synthase): 7 pmol/min
- Wax synthase Activity, Alcohol Group (jojoba wax synthase): 123 pmol/min

Molecule: NC(=O)C1=CN([C@@H]2O[C@H](COP(=O)(O)OP(=O)(O)OC[C@H]3O[C@@H](n4cnc5c(N)ncnc54)[C@H](O)[C@@H]3O)[C@@H](O)[C@H]2O)C=CC1 [NADH]
- effect of end-products and cofactors on reductase activity (in words) [1]: marginal effects

Molecule: [Cl-].[Cl-].[Mg+2] [MgCl2]
- effect of salt on reductase activity (in words) [1]: stimulate reductase activity

Molecule: palmitoyl-ACP [16:0]
- activity as substrate of the reductase (in words) ([1]; substrate specificity experiment, 10 uM substrate): high
- wax synthase activity relative to acyl-CoA (jojoba wax synthase; [5]): ~ 10 % of that with acyl-CoA

Molecule: CCCCCCCCCCCCCC(=O)SCCNC(=O)CCNC(=O)[C@H](O)C(C)(C)COP(=O)(O)OP(=O)(O)OC[C@H]1O[C@@H](n2cnc3c(N)ncnc32)[C@H](O)[C@@H]1OP(=O)(O)O [14:0]
- Wax synthase Activity, Acyl Group (jojoba wax synthase): 95 pmol/min
- Wax synthase Activity, Alcohol Group (jojoba wax synthase): 145 pmol/min

Molecule: CCCCCCCCCCCCCCCCCCCCCC(=O)SCCNC(=O)CCNC(=O)[C@H](O)C(C)(C)COP(=O)(O)OP(=O)(O)OC[C@H]1O[C@@H](n2cnc3c(N)ncnc32)[C@H](O)[C@@H]1OP(=O)(O)O [22:0]
- Wax synthase Activity, Acyl Group (jojoba wax synthase): 46 pmol/min
- Wax synthase Activity, Alcohol Group (jojoba wax synthase): 17 pmol/min

Molecule: stearoyl-ACP
- activity as substrate of the reductase (in words) [3]: shown to have activity as a substrate

Molecule: CCCCCCCC/C=C\CCCCCCCCCCCC(=O)SCCNC(=O)CCNC(=O)[C@H](O)C(C)(C)COP(=O)(O)OP(=O)(O)OC[C@H]1O[C@@H](n2cnc3c(N)ncnc32)[C@H](O)[C@@H]1OP(=O)(O)O [22:1]
- Reductase Activity, Acyl-CoA (10 μM) [1]: 1.0 pmol/min/µL
- Wax synthase Activity, Acyl Group (jojoba wax synthase): 39 pmol/min
- Wax synthase Activity, Alcohol Group (jojoba wax synthase): 41 pmol/min

Molecule: [Cl-].[Na+] [NaCl]
- stimulation of reductase activity ([1]; addition of 0.5M salt, 500000 µM): Up to 15 fold

Molecule: NC(=O)CI [iodoacetamide]
- inhibitory effect on jojoba acyl-CoA reductase activity (in words) [1]: no effect

Molecule: C/C=C/C/C=C/CCC(=O)[C@H]1O[C@H]1C(N)=O [Cerulinen]
- inhibitory effect on jojoba acyl-CoA reductase activity (in words) [1]: no strong inhibitory effect

Molecule: CCN1C(=O)C=CC1=O [N-ethylmaleimide]
- inhibitory effect on jojoba acyl-CoA reductase activity (in words) [1]: strongly inhibit

Molecule: O=C(O)c1cc[c]([Hg][OH])cc1 [para-hydroxymercuribenzoate]
- inhibitory effect on jojoba acyl-CoA reductase activity (in words) [1]: some inhibitory effect

Molecule: bovine serum albumin [BSA]
- effect on reductase activity (in words) ([1]; concentrations at and above 0.2 mg/ml): inhibition of activity
- effect on reductase activity (in words) ([1]; low concentrations, 0.02-0.075 mg/ml): small stimulation

Molecule: [Ca+2].[Cl-].[Cl-] [CaCl2]
- effect of salt on reductase activity (in words) [1]: stimulate reductase activity

Molecule: [Cl-].[K+] [KC1]
- effect of salt on reductase activity (in words) [1]: stimulate reductase activity

Molecule: [Cl-].[Li+] [LiC1]
- effect of salt on reductase activity (in words) [1]: stimulate reductase activity

Molecule: O=S(=O)([O-])[O-].[Na+].[Na+] [Na2 SO4]
- effect of salt on reductase activity (in words) [1]: stimulate reductase activity

Molecule: C[C@H](CCC(=O)NCCC[N+](C)(C)CCCS(=O)(=O)[O-])[C@H]1CC[C@H]2[C@@H]3[C@H](O)C[C@@H]4C[C@H](O)CC[C@]4(C)[C@H]3C[C@H](O)[C@]12C [CHAPS, 3-[(3-cholamidopropyl)-dimethyl-ammonio]-1-propanesulfonate]
- effect on the reductase enzyme (in words) ([1]; 0.3% w/v in the assay mixture): minimal effect
- effect on the acyl transferase reaction (in words) [4]: completely inhibits

Molecule: O=C(O)CN(CCN(CC(=O)O)CC(=O)O)CC(=O)O [EDTA, ethylenediaminetetraacetic acid]
- effect of effector on reductase activity (in words) [1]: some stimulation

Molecule: N#CS [KSCN]
- effect of salt on reductase activity (in words) [1]: no stimulation or marginal stimulation

Molecule: O[C@H](CS)[C@H](O)CS (racemic) [DTT, Dithiothreitol]
- effect of effector on reductase activity (in words) [1]: stimulatory
